Assay results taken from PMC12388300, “The Chelating Abilities of Tertiary Amines with N-O-Donors Towards Cu(II) Ions and the Catalytic Properties of the Resulting Complexes” (Molecules, 2025).
Where two headings read alike, the source gives them in different places. Marks after values point to notes of the source that are not given here. Where no end group is shown, it is not given here.

Columns and labels:
[1] = Cyclic voltammetry of the Cu(II)/Cu(I) couple; assay type: physicochemical
Experimental: To assess this behavior, the corresponding redox potentials were measured by cyclic voltammetry (CV), offering key insights into the electron-transfer properties of the complexes. The metal ion redox potential should ideally lie between the potential for oxidation (−0.16 V vs. NHE) (Equation (1)) and reduction (0.89 V vs. NHE) of superoxide radicals (Equation (2)).(1) O2∙−→O2+e^− (2) O2∙−+e^−+H^+→H2O2
The key electrochemical parameters extracted from the cyclic voltammograms are summarized in Table 3, highlighting a similar redox behavior of the complexes with both ligands. However, the nature of the anion appears to influence the properties of the mononuclear species formed in situ, compared with the isolated complexes.
Cyclic voltammetry experiments were carried out using a BAS Cell C3 EC-epsilon potentiostat equipped with a conventional three-electrode system consisting of a glassy carbon working electrode (3 mm diameter, geometric surface 7 mm^2), a platinum wire counter electrode (CE), and a silver/silver chloride reference electrode (Ag/AgCl, 3 M KCl). Voltammograms were recorded in phosphate-buffered saline (PBS; 10 mM, 150 mM NaCl, pH 7.8) containing 0.25 mM of the complex. The measurements were performed within a potential window from −600 mV to +400 mV, employing various scan rates (50 mV/s, 100 mV/s, 200 mV/s, 400 mV/s, and 800 mV/s).

[2] = CAT-like activity: O2 pressure from hydrogen peroxide dismutation; assay type: biochemical; design: Rmax: unit not given here; settings: [catalyst] = 200 μM, [H2O2] = 20–30 mM in BBS 50 mM, pH = 7.8
Experimental: The studied catalase-like activity of the complexes was evaluated by measuring the pressure resulting from the oxygen produced during the dismutation of the hydrogen peroxide. For this analysis, a borate-based buffer system (BBS 50 mM, pH 7.8) was utilized to avoid the competitive binding of phosphate anions.
Catalytic measurement assays were conducted using a Varian Cary 100 spectrophotometer with a 3 mL quartz cuvette (1 cm path length) for evaluating SOD-like activity. For the assessment of peroxidase-mimicking activity, a Varian Cary 50 instrument and identical cuvettes were utilized. To monitor the CAT-like activity, a 25 mL vial, equipped with a septum for solution injection, was used as a reactor and connected to a pressure transducer. […]
To monitor the CAT-like activity, a 25 mL vial was used as a reactor, connected to a pressure transducer and
a septum for the injection.

[3] = SOD activity, indirect cytochrome C (CytC) assay, xanthine/xanthine oxidase; assay type: biochemical; settings: [CytC] = 10 μM, pH = 7.8
Experimental: To reduce uncertainty about the actual active species involved in the reaction, the catalytic investigations were made with the isolated species. The ability to catalyze superoxide dismutation was assessed using the indirect cytochrome C-based assay originally introduced by McCord and Fridovich. In this kind of test, the presence of a catalyst with SOD activity, acting as a scavenger for O2^•− and generated via a xanthine/xanthine oxidase system, prevents the electron transfer to cytochrome C (Cyt C) to form […].
Catalytic measurement assays were conducted using a Varian Cary 100 spectrophotometer with a 3 mL quartz cuvette (1 cm path length) for evaluating SOD-like activity. For the assessment of peroxidase-mimicking activity, a Varian Cary 50 instrument and identical cuvettes were utilized. To monitor the CAT-like activity, a 25 mL vial, equipped with a septum for solution injection, was used as a reactor and connected to a pressure transducer.

[4] = UV–Vis monitoring of complex stability during H2O2 dismutation; assay type: physicochemical; settings: during H2O2 dismutation, BBS 50 mM pH 7.8
Excerpt: The reaction progression was monitored by UV–Vis to gather insights into the stability of the complexes during H2O2 dismutation (Figures S45–S48 in Supplementary Materials). Analyzing the spectra recorded for the systems derived from HL1 and HL5, it is possible to observe changes in the absorption bands. In the case of the mononuclear species containing HL1, the alteration in the absorption band takes place over a comparatively extended period, in agreement with the occurrence of the delay period previously noted. The intensity associated with the π→π * electronic transition progressively diminishes, coinciding with a rise in molecular oxygen generation. Such a trend implies structural reconfiguration within the coordination environment of the complex, which appears necessary to initiate the catalytic event. On the other hand, the characteristic absorption feature vanishes after 4 h as a result of the formation of radical species. The UV–Vis profile of the complex Cu(HL5)(ClO4)2 (Figure S46) undergoes a faster modification.
Figure S46: UV-Vis spectra of Cu(HL5)(ClO4)2 at time 0 (red) and after 7 h (light red). The colours variation represents an increment of 5 min from t=0 to t=15 min, of 15 min from t=15 to t= 45 min and 45 min from t= 45 to t=360 min.
Conditions: [Cu(HL5)(ClO4)2]= 200 uM, [H2O2]=10mM in BBS 50mM pH=7.8. Zoom: temporal trends compared to O2 (red) and Abs (light red) on the maximum absorption at 294 nm.
Figure S47: UV-Vis spectra of Cu2(L1)2(ClO4)2 at time 0 (blue) and after 24 hours (light blue). Every change of colors represents a temporal increase of 90 minutes. Conditions: [Cu2(L1)2(ClO4)2] = 200 µM, [H2O2] = 10 mM in BBS 50 mM, pH = 7.8. Zoom: temporal trends compared to O2 (blue) and Abs (light blue) on the maximum absorption at 288 nm.
Figure S48: UV-Vis spectra of Cu2(L5)2(ClO4)2 at time 0 (dark green) and after 24 hours (light green). Every change of colours represents a temporal increase of 90 minutes. Conditions: [Cu2(L5)2(ClO4)2] = 200 µM, [H2O2] = 10 mM in BBS 50 mM, pH = 7.8. […]

[5] = cited from earlier work; for IC50: CytC assay, read-out: IC50 (SOD activity)
[6] = Potentiometric titration: stability constants and speciation of in situ-formed Cu(II) complexes; assay type: physicochemical; settings: for logβi of [Cu(HLx)H]^3+ / logβi of [Cu(HLx)]^2+ / logβi of [Cu(Lx)(OH)2]^− / logβi of [Cu(Lx)(OH)] / logβi of [Cu(Lx)]^+: overall stability constant, in situ-formed complex, I = 0.1 M, 25 °C; for pH of maximum concentration of [Cu(HLx)H]^3+: speciation curves, ligand/copper(II) 1:1; for pKi of [Cu(Lx)(OH)2]^− / pKi of [Cu(Lx)(OH)] / pKi of [Cu(Lx)]^+ / pKi of [Cu(HLx)]^2+: stepwise stability constant; for pKi of [Cu(HLx)]^2+: [Cu(HLx)H]^3+ ⇄ [Cu(HLx)]^2+ + H^+
Experimental: Based on the potentiometric studies, the overall and stepwise stability constants of formed complexes were obtained and collected in Table 2; the speciation curves of in situ-formed complexes are presented in Figure 2.
(§1) Potentiometric measurements were performed using a Metrohm pH-meter system equipped with a semi-micro combination electrode, at 25 °C. The system was calibrated based on hydrogen ion concentration using HCl. Ligands were prepared in a 5% (v/v) DMSO solution with water containing HCl/KCl with a constant ionic strength of I = 0.1 M to achieve a final concentration of 1 mM and 0.6 mM of HL1 and HL5, respectively. Titrations were conducted by incrementally adding 0.1 M KOH using a microsyringe at 25°C, spanning a pH interval from 2.5 to 11.5, under an argon atmosphere. The stability constants and complex stoichiometries were determined from the titration data using the SUPERQUAD and HYPERQUAD programs.

[7] = Potentiometric titration: protonation constants of the ligands; assay type: physicochemical; settings: I = 0.1 M, 25 °C; for logβi, Lx^− + 2H^+ ⇌ [(HLx)H]^+ / logβi, Lx^− + 3H^+ ⇌ [(HLx)H2]^2+ / logβi, Lx^− + 4H^+ ⇌ [(HLx)H3]^3+ / logβi, Lx^− + H^+ ⇌ HLx: overall protonation constant, 5% v/v DMSO/H2O, HCl/KCl; for logKi, Lx^− + H^+ ⇌ HLx: stepwise protonation constant (phenolic group); for logKi, HLx + H^+ ⇌ [(HLx)H]^+ / logKi, [(HLx)H2]^2+ + H^+ ⇌ [(HLx)H3]^3+ / logKi, [(HLx)H]^+ + H^+ ⇌ [(HLx)H2]^2+: stepwise protonation constant
Experimental: Initially, potentiometric measurements were performed to investigate the binding abilities of the ligands in an aqueous environment at different pH levels and to construct the corresponding speciation curves (Figure 1). The analyses were performed in HCl/KCl mixtures, with KCl used to maintain a constant ionic strength of 0.1 mol·dm^−3. The first step of the potentiometric studies was the assessment of the acid-base properties of both ligands. The overall and stepwise protonation constants are collected in Table 1.
as §1

[8] = [Catalyst] = 100 μM, [H2O2] = 30 mM, MOPS buffer (50 mM, pH 7.5); cited from earlier work
[9] = vs NHE, PBS 10 mM, 150 mM NaCl, pH 7.8, 0.25 mM complex

Row | Compound | IC50 [5] | Log (kcat) [5] | logβi of [Cu(HLx)H]^3+ [6] | logβi of [Cu(HLx)]^2+ [6] | logβi of [Cu(Lx)(OH)2]^− [6] | logβi of [Cu(Lx)(OH)] [6] | logβi of [Cu(Lx)]^+ [6] | pH of maximum concentration of [Cu(HLx)H]^3+ [6] | pKi of [Cu(Lx)(OH)2]^− [6] | pKi of [Cu(Lx)(OH)] [6] | pKi of [Cu(Lx)]^+ [6] | pKi of [Cu(HLx)]^2+ [6] | logβi, Lx^− + 2H^+ ⇌ [(HLx)H]^+ [7] | logβi, Lx^− + 3H^+ ⇌ [(HLx)H2]^2+ [7] | logβi, Lx^− + 4H^+ ⇌ [(HLx)H3]^3+ [7] | logβi, Lx^− + H^+ ⇌ HLx [7] | logKi, Lx^− + H^+ ⇌ HLx [7] | logKi, HLx + H^+ ⇌ [(HLx)H]^+ [7] | logKi, [(HLx)H2]^2+ + H^+ ⇌ [(HLx)H3]^3+ [7] | logKi, [(HLx)H]^+ + H^+ ⇌ [(HLx)H2]^2+ [7] | further results
1 | Oc1ccccc1CN(Cc1ccccn1)Cc1ccccn1.[Cu+2].[O-][Cl+3]([O-])([O-])[O-].[O-][Cl+3]([O-])([O-])[O-] [Cu(HL1)(ClO4)2] | – | – | – | – | – | – | – | – | – | – | – | – | – | – | – | – | – | – | – | – | ΔE ([1]; Epc − Epa, PBS pH 7.8): −0.085 V; │ia/ic│ ([1]; peak current ratio, PBS pH 7.8): 0.61; E1/2 ([1]; vs NHE, E1/2=(Epc+Epa)/2, PBS pH 7.8): −0.135 V; Epa [1, 9]: −0.092 V; Epc [1, 9]: −0.177 V; Time (to maximum O2 production) [2]: 950 min; Induction Time ([2]; triplicate, ±10% error): 250 min; O2 generated ([2]; triplicate, ±10% error): 7.6 mmol/L; Rmax ([2]; triplicate, ±10% error): 0.25; IC50 ([3]; CytC assay, [xanthine] = 40 μM, [xanthine oxidase] = 0.0053 U/mL, phosphate buffer 50 mM): 1.41 µM; Log (kcat) ([3]; kcat(O2•−)=kCytC·[CytC]/IC50, kCytC=2.6×10^5 M^−1s^−1): 6.27 ^h; time after which the characteristic absorption feature vanishes [4]: 4 h
2 | O=S(=O)([O-])[O-].[Cu+2] [CuSO4] | 72.2 µM | ~6 | – | – | – | – | – | – | – | – | – | – | – | – | – | – | – | – | – | – | –
3 | Oc1ccccc1CN(Cc1ccccn1)Cc1ccccn1 [HL1, N-(2-hydroxylbenzyl)-N,N-bis(2-pyridylmethyl)amine] | – | – | 22.67 ± 0.06 | 16.84 ± 0.08 | −10.42 ± 0.09 | 0.03 ± 0.09 | 9.73 ± 0.08 | 4.5 | 10.45 | 9.70 | 7.11 | 5.83 | 16.29 ± 0.02 | 21.53 ± 0.02 | 25.24 ± 0.02 | 9.99 ± 0.01 | 9.99 | 6.30 | 3.71 | 5.24 | metal ion binding efficiency in the competition diagram ([6]; HL1:Cu(II):HL5 molar ratio 1:1:1, pH 3 to 11): significantly less efficient in metal ion binding
4 | COc1cccc(CN(Cc2ccccn2)Cc2ccccn2)c1O [HL5, 2-{[Bis(pyridin-2-ylmethyl)amino]methyl}-6-methoxyphenol] | – | – | 23.43 ± 0.08 | 18.04 ± 0.10 | −8.56 ± 0.11 | 1.77 ± 0.11 | 11.51 ± 0.10 | 3.5 | 10.33 | 9.74 | 6.53 | 5.39 | 15.77 ± 0.02 | 20.71 ± 0.02 | 24.43 ± 0.02 | 9.52 ± 0.01 | 9.52 | 6.25 | 3.72 | 4.94 | –
5 | O=C([O-])CCN(Cc1ccccn1)Cc1ccccn1.[Cu+2] [[Cu(BPMPA)]^+] | 1.04 µM | 7.09 | – | – | – | – | – | – | – | – | – | – | – | – | – | – | – | – | – | – | –
6 | (CATm1)Cu2: di-copper complex of CATm1 = peptide sequence PHYKHRLH (also: di-copper complex) | – | – | – | – | – | – | – | – | – | – | – | – | – | – | – | – | – | – | – | – | O2 generated [8]: 0.3 mmol/L; Rmax [8]: 273 µM/min; Time [8]: 3 min
